This is an account of results in publication PMC8537140, “Synthesis and Inhibition Activity Study of Triazinyl-Substituted Amino(alkyl)-benzenesulfonamide Conjugates with Polar and Hydrophobic Amino Acids as Inhibitors of Human Carbonic Anhydrases I, II, IV, IX, and XII” (International Journal of Molecular Sciences, 2021).

Holding throughout (format): biochemical
One assay concerns the target T1, hCA IV (Homo sapiens, UniProt P22748).
T1 construct: made in house
Kind of assay: stopped-flow CO2 hydrase assay, hCA IV. The following applies: recombinant enzyme, 15 min preincubation, pH 8.3, mean from 3 assays.

The target of another assay is T2, hCA I (Homo sapiens, UniProt P00915).
T2 construct: made in house
The assay can be described thus: stopped-flow CO2 hydrase assay, hCA I. The following applies: recombinant enzyme, 15 min preincubation, pH 8.3, mean from 3 assays.

Another assay concerns the target T3, hCA XII (Homo sapiens, UniProt O43570).
T3 construct: made in house
Kind of assay: stopped-flow CO2 hydrase assay, hCA XII. The conditions noted are these: for Selectivity II/XII: ratio Ki hCA II / Ki hCA XII; for Ki: recombinant enzyme, 15 min preincubation, pH 8.3, mean from 3 assays.

The target of another assay is T4, hCA II (Homo sapiens, UniProt P00918).
T4 construct: made in house
Kind of assay: stopped-flow CO2 hydrase assay, hCA II. The following applies: recombinant enzyme, 15 min preincubation, pH 8.3, mean from 3 assays.

The next assay has as its target T5, hCA IX (Homo sapiens, UniProt Q16790).
T5 construct: made in house
Kind of assay: stopped-flow CO2 hydrase assay, hCA IX. The conditions noted are these: for Selectivity II/IX: ratio Ki hCA II / Ki hCA IX; for Ki: recombinant enzyme, 15 min preincubation, pH 8.3, mean from 3 assays.

T3 sequence (O43570 25-354): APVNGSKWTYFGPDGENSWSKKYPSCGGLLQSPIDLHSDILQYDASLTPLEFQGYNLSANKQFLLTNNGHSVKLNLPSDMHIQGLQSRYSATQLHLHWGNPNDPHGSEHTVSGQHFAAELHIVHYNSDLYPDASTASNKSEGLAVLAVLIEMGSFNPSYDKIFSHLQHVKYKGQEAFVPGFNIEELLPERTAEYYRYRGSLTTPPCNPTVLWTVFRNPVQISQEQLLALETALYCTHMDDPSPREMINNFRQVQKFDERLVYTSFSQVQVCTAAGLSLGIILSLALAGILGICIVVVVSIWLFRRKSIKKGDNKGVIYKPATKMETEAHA
T1 sequence (P22748 19-312): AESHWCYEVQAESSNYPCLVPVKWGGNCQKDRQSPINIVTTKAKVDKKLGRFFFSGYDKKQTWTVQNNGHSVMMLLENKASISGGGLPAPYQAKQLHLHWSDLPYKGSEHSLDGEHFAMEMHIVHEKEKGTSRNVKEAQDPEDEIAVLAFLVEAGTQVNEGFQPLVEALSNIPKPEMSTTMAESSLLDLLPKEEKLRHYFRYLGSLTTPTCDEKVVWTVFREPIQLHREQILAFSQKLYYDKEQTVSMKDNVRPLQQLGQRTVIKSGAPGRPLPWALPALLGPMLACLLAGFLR
T2 sequence (P00915 whole entry): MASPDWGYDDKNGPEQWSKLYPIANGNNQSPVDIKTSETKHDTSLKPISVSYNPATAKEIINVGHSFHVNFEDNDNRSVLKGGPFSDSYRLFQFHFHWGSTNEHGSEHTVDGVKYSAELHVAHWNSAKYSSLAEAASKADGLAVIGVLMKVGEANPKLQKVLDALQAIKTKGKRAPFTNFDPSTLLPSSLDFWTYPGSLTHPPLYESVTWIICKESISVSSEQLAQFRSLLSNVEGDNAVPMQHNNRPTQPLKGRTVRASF
Description for hCA II: (§1) An Applied Photophysics stopped-flow instrument (Applied Photophysics, Leatherhead, UK) was used for assaying the CA-catalyzed CO2 hydration activity [31]. […] The uncatalyzed rates were determined in the same manner and subtracted from the total observed rates. Stock solutions of inhibitor (0.1 mM) were prepared in distilled-deionized water and dilutions up to 0.005 nM were done thereafter with the assay buffer. Inhibitor and enzyme solutions were preincubated together for 15 min at room temperature prior to assay, in order to allow formation of the E–I complex. The inhibition constants were obtained by non-linear least-squares methods using PRISM 3 and the ChengPrusoff equation, as reported earlier, and represent the mean from at least three different determinations. All CA isozymes were recombinant ones obtained in-house.
Description for hCA IV: as §1
Description for hCA IX: as §1
Description for hCA XII: as §1

For `NS(=O)(=O)c1ccc(CNc2nc(NC(Cc3c[nH]c4ccccc34)C(=O)O)nc(NC(Cc3c[nH]c4ccccc34)C(=O)O)n2)cc1` (centres unmarked) [compound 13, 2,2′-[(6-({4-sulfamoylbenzyl}amino)-1,3,5-triazine-2,4-diyl)diimino]bis(3-(1H-indol-3-yl)propanoic acid)], the Ki on hCA IV is 93.6 nM; at hCA I it was 30.5 nM; on hCA XII it was 8.6 nM; at hCA II, 6.22 nM; on hCA IX, 66.4 nM. For the same compound, at hCA XII, the “Selectivity II/XII” value turned out to be 0.70. The “Selectivity II/IX” value on hCA IX amounted to 0.09.
Turning to `NC(=O)CC(Nc1nc(Nc2ccc(S(N)(=O)=O)cc2)nc(NC(CC(N)=O)C(=O)O)n1)C(=O)O` (centres unmarked) [compound 9], the Ki at hCA IV is 5330 nM; at hCA I, more than 10000 nM; on hCA XII it was 38.4 nM; at hCA II it was 656 nM; on hCA IX, 895 nM. Further, the “Selectivity II/XII” value on hCA XII was determined as 17.10. For the same compound, the “Selectivity II/IX” value on hCA IX is given as 0.73.
As for `NC(=O)CC(Nc1nc(NCc2ccc(S(N)(=O)=O)cc2)nc(NC(CC(N)=O)C(=O)O)n1)C(=O)O` (centres unmarked) [compound 16, 2,2′-[(6-({4-sulfamoylbenzyl}amino)-1,3,5-triazine-2,4-diyl)diimino]bis(3-carbamoylpropanoic acid)], the Ki is more than 10000 nM on hCA IV; 834 nM on hCA I; 44 nM on hCA XII; 251 nM at hCA II; 95.3 nM at hCA IX. Besides, the “Selectivity II/XII” value at hCA XII turned out to be 5.70. For the same compound, at hCA IX, the “Selectivity II/IX” value came to 2.63.
Take `NS(=O)(=O)c1ccc(Nc2nc(N[C@@H](Cc3c[nH]c4ccccc34)C(=O)O)nc(N[C@@H](Cc3c[nH]c4ccccc34)C(=O)O)n2)cc1` [compound 6]: the Ki came to 59.3 nM at hCA IV; 48.3 nM on hCA I; 8.21 nM on hCA XII; 1.61 nM on hCA II; 45.2 nM at hCA IX. The “Selectivity II/XII” value on hCA XII was 0.20. Further, the “Selectivity II/IX” value on hCA IX was found to be 0.04.
As to `CC(O)C(Nc1nc(NCCc2ccc(S(N)(=O)=O)cc2)nc(NC(C(=O)O)C(C)O)n1)C(=O)O` (centres unmarked) [compound 22, 2,2′-[(6-({2-(4-sulfamoylphenyl)ethyl}amino)-1,3,5-triazine-2,4-diyl)diimino]bis(3-hydroxybutanoic acid)], the Ki at hCA IV was more than 10000 nM; at hCA I it was 829 nM; on hCA XII, 62.7 nM; at hCA II, 259 nM; at hCA IX it was 89.5 nM. Further, on hCA XII, the “Selectivity II/XII” value is reported as 4.10. The “Selectivity II/IX” value at hCA IX is recorded as 2.89.
Consider `NC(=O)CCC(Nc1nc(Nc2ccc(S(N)(=O)=O)cc2)nc(NC(CCC(N)=O)C(=O)O)n1)C(=O)O` (centres unmarked) [compound 10], for which the Ki amounted to 8410 nM at hCA IV; 9200 nM on hCA I; 68.3 nM on hCA XII; 775 nM on hCA II; 625 nM on hCA IX. Besides, the “Selectivity II/XII” value at hCA XII worked out at 11.30. Also, the “Selectivity II/IX” value on hCA IX stood at 1.24.
With `CC(O)C(Nc1nc(NCc2ccc(S(N)(=O)=O)cc2)nc(NC(C(=O)O)C(C)O)n1)C(=O)O` (centres unmarked) [compound 15, 2,2′-[(6-({4-sulfamoylbenzyl}amino)-1,3,5-triazine-2,4-diyl)diimino]bis(3-hydroxybutanoic acid)], the Ki was more than 10000 nM at hCA IV; 684 nM at hCA I; 44.9 nM on hCA XII; 76.6 nM on hCA II; 365 nM at hCA IX. The “Selectivity II/XII” value at hCA XII was found to be 1.70. Also, the “Selectivity II/IX” value on hCA IX was 0.21.
As to `NS(=O)(=O)c1ccc(Nc2nc(NC(CO)C(=O)O)nc(NC(CO)C(=O)O)n2)cc1` (centres unmarked) [compound 7], the Ki worked out at 8700 nM on hCA IV; 6560 nM on hCA I; 71.9 nM at hCA XII; 523 nM at hCA II; 465 nM on hCA IX. In addition, the “Selectivity II/XII” value on hCA XII was 7.30. For the same compound, the “Selectivity II/IX” value at hCA IX amounted to 1.12.
As to `NS(=O)(=O)c1ccc(CNc2nc(NC(Cc3ccc(O)cc3)C(=O)O)nc(NC(Cc3ccc(O)cc3)C(=O)O)n2)cc1` (centres unmarked) [compound 12, 2,2′-[(6-({4-sulfamoylbenzyl}amino)-1,3,5-triazine-2,4-diyl)diimino]bis(3-(4-hydroxyphenyl)propanoic acid)], the Ki at hCA IV was 244 nM; on hCA I it was 75.7 nM; on hCA XII, 8.7 nM; on hCA II, 53.1 nM; on hCA IX, 87.3 nM. Also, the “Selectivity II/XII” value on hCA XII came out at 6.10. The “Selectivity II/IX” value on hCA IX was 0.61.
Consider `NS(=O)(=O)c1ccc(CNc2nc(NC(CO)C(=O)O)nc(NC(CO)C(=O)O)n2)cc1` (centres unmarked) [compound 14, 2,2′-[(6-({4-sulfamoylbenzyl}amino)-1,3,5-triazine-2,4-diyl)diimino]bis(3-hydroxypropanoic acid)], for which the Ki at hCA IV came to 6100 nM; on hCA I, 653 nM; at hCA XII it was 81.5 nM; on hCA II it was 252 nM; at hCA IX it was 263 nM. Also, at hCA XII, the “Selectivity II/XII” value was 3.10. The “Selectivity II/IX” value at hCA IX stood at 0.96.
On to `NC(=O)CC(Nc1nc(NCCc2ccc(S(N)(=O)=O)cc2)nc(NC(CC(N)=O)C(=O)O)n1)C(=O)O` (centres unmarked) [compound 23, 2,2′-[(6-({2-(4-sulfamoylphenyl)ethyl}amino)-1,3,5-triazine-2,4-diyl)diimino]bis(3-carbamoylpropanoic acid)], for which the Ki at hCA IV is more than 10000 nM; on hCA I it was 886 nM; on hCA XII, 53.1 nM; at hCA II it was 136 nM; on hCA IX, 377 nM. Besides, the “Selectivity II/XII” value at hCA XII is reported as 2.60. Moreover, at hCA IX, the “Selectivity II/IX” value turned out to be 0.36.
Take `CC(Nc1nc(Nc2ccc(S(N)(=O)=O)cc2)nc(NC(C)C(=O)O)n1)C(=O)O` (centres unmarked) [compound 4]: the Ki on hCA IV was 88.1 nM; at hCA I, 5540 nM; on hCA XII it was 8.88 nM; on hCA II it was 782 nM; at hCA IX it was 515 nM. The “Selectivity II/XII” value on hCA XII worked out at 88.10. Besides, the “Selectivity II/IX” value on hCA IX was determined as 1.52.
As for `NC(=O)CCC(Nc1nc(NCc2ccc(S(N)(=O)=O)cc2)nc(NC(CCC(N)=O)C(=O)O)n1)C(=O)O` (centres unmarked) [compound 17, 2,2′-[(6-({4-sulfamoylbenzyl}amino)-1,3,5-triazine-2,4-diyl)diimino]bis(4-carbamoylbutanoic acid)], the inhibition constant Ki at hCA IV is more than 10000 nM; on hCA I it was 695 nM; at hCA XII, 34.3 nM; at hCA II, 239 nM; on hCA IX it was 458 nM. At hCA XII, the “Selectivity II/XII” value was 7.00. Moreover, the “Selectivity II/IX” value at hCA IX is on record as 0.52.
Take `CC(Nc1nc(NCCc2ccc(S(N)(=O)=O)cc2)nc(NC(C)C(=O)O)n1)C(=O)O` (centres unmarked) [compound 18, 2,2′-[(6-({2-(4-sulfamoylphenyl)ethyl}amino)-1,3,5-triazine-2,4-diyl)diimino]dipropanoic acid]: the Ki at hCA IV stood at 3860 nM; on hCA I, 787 nM; on hCA II, 169 nM; on hCA IX it was 78.8 nM.
